Data: PMC9079959, “Substituted spirooxindole derivatives as potent anticancer agents through inhibition of phosphodiesterase 1” (RSC Advances, 2018)
Like-named read-outs stand apart in the source and are kept apart here.

Assays:
[1] = test system: HCT-116 cells; assay: MTT cytotoxicity assay, colorectal cancer cell line HCT-116; format: cell-based; settings: for SI (selectivity index): IC50 normal (VERO-B) / IC50 cancer (HCT-116)
Protocol: (§1) The cytotoxic activity of the compounds was tested against different mammalian cancer cells, prostate carcinoma cells (PC-3), hepatocellular carcinoma (HepG2) and colon cancer cells (HCT-116). African green monkey kidney cells (Vero-B) were used as normal cells to study the selectivity towards the cancer cells. The cell lines were obtained from the American Type Culture Collection (ATCC). The cells were cultivated at 37 °C and 10% CO2 in DMEM (Lonza, Germany) medium supplemented with 10% fetal bovine serum (Lonza, Germany), 100 IU ml^−1 penicillin and 100 μg ml^−1 streptomycin (Lonza, Germany). […] The spirooxindole derivatives were solubilized in DMSO and stored at −20 °C. The viability of the cells was quantified using 3-(4,5-dimethylthiazol-2-yl)-2,5-diphenyl tetrazolium bromide (MTT), which measures the activity of mitochondrial succinate dehydrogenase in viable cells.[45,46]
(§2) The cells were seeded in 96-well plates at a concentration of 5 × 10^4 cells per ml (100 μl per well). […] DMSO was used as a negative control (0.1%). The cells were incubated for 48 h. After that, 15 μl of MTT (5 mg ml^−1 in PBS) was added to each well and incubated for another 4 h. The formazan crystals were solubilized by 100 μl of acidified SDS solution (10% SDS/0.01 N HCl in PBS). The absorbance was measured after 14 h of incubation at 37 °C and under 5% CO2 at 570 nm by using a BioTek microplate reader. Each experiment was repeated 3 times and a standard deviation was calculated (SD±). […] The growth of the cells was monitored and the images were acquired by Gx microscopes (GXMGXD202 Inverted Microscope) at 10× magnification.

[2] = test system: HepG2 cells; assay: MTT cytotoxicity assay, hepatocellular carcinoma HepG2; format: cell-based; settings: for IC50: Homo sapiens, HepG2; for SI (selectivity index): IC50 normal (VERO-B) / IC50 cancer (HepG2)
Protocol: as §1, §2

[3] = test system: Vero-B cells; assay: MTT cytotoxicity assay, normal cells Vero-B; format: cell-based, African green monkey; settings: 48 h
Protocol: as §1, §2

[4] = test system: PC-3 cells; assay: MTT cytotoxicity assay, prostate cancer cell line PC-3; format: cell-based; settings: for SI (selectivity index): IC50 normal (VERO-B) / IC50 cancer (PC-3)
Protocol: as §1, §2

[5] = target: phosphodiesterase 1; format: biochemical, snake; settings: positive control
Protocol: A phosphodiesterase I inhibition assay was performed using snake venom according to a previously reported method with minute variations. Briefly, 33 mM Tris–HCl buffer of pH 8.8 (97 μl), 30 mM magnesium acetate with an enzyme concentration of 0.000742 U well^−1 and 0.33 mM bis-(p-nitrophenyl) phosphate (Sigma N-3002, 60 μl) as substrate were taken. […] After a pre-incubation period of 30 min, the enzyme with the test samples was observed spectrophotometrically for enzyme activity on a microtiter plate reader at 37 °C by following the rate of change in OD min^−1 at 410 nm of the p-nitrophenol released from p-nitrophenyl phosphate. All assays were processed in triplicate.[47]

[6] = Homo sapiens, HCT-116, MTT, 48 h, ± SD of 3 experiments, read-out: HCT-116 (IC50)
[7] = Homo sapiens, HCT-116, MTT, 48 h, read-out: HCT-116 (IC50, μg ml^−1)
[8] = MTT, 48 h, ± SD of 3 experiments, read-out: HepG2 (IC50)
[9] = MTT, 48 h, read-out: HepG2 (IC50, μg ml^−1)
[10] = Homo sapiens, PC-3, MTT, 48 h, ± SD of 3 experiments, read-out: PC-3 (IC50)
[11] = Homo sapiens, PC-3, MTT, 48 h, read-out: PC-3 (IC50, μg ml^−1)

Cc1ccc(C2[C@@H](C(=O)c3c[nH]c4ccccc34)[C@]3(C(=O)Nc4ccccc43)N3CCC[C@@H]23)cc1 (stereo partly drawn) [4b, (2′R,3S,7a′S)-2′-(1H-Indole-3-carbonyl)-1′-(p-tolyl)-1′,2′,5′,6′,7′,7a′-hexahydrospiro[indoline-3,3′-pyrrolizin]-2-one]
IC50 [1, 6]: 21 ± 2 µM | IC50 [1, 7]: 9.7 µg/mL | SI (selectivity index) [1]: 1.2 | IC50 [2, 8]: 11.8 ± 2 µM | IC50 [2, 9]: 5.4 µg/mL | SI (selectivity index) [2]: 2.2 | IC50 ([3]; Chlorocebus sabaeus, Vero B): 26 µM | IC50 [4, 10]: 16.3 ± 2 µM | IC50 [4, 11]: 7.5 µg/mL | SI (selectivity index) [4]: 1.6 | melting point: 174 to 176 °C

O=C(c1c[nH]c2ccccc12)[C@@H]1C(c2ccc(Cl)cc2)[C@@H]2CCCN2[C@@]12C(=O)Nc1ccccc12 (stereo partly drawn) [4c, (2′R,3S,7a′S)-1′-(4-Chlorophenyl)-2′-(1H-indole-3-carbonyl)-1′,2′,5′,6′,7′,7a′-hexahydrospiro[indoline-3,3′-pyrrolizin]-2-one]
IC50 [1, 6]: 20 ± 1.5 µM | IC50 [1, 7]: 9.6 µg/mL | SI (selectivity index) [1]: 1.1 | IC50 [2, 8]: 8 ± 0.5 µM | IC50 [2, 9]: 3.8 µg/mL | SI (selectivity index) [2]: 2.8 | IC50 ([3]; Chlorocebus sabaeus, Vero B): 22 µM | IC50 [4, 10]: 11.8 ± 1.3 µM | IC50 [4, 11]: 5.7 µg/mL | SI (selectivity index) [4]: 1.9 | melting point: 165 to 167 °C

COc1ccc(C2[C@@H](C(=O)c3c[nH]c4ccccc34)[C@]3(C(=O)Nc4ccccc43)N3CCC[C@@H]23)cc1 (stereo partly drawn) [4e, (2′R,3S,7a′S)-2′-(1H-Indole-3-carbonyl)-1′-(4-methoxyphenyl)-1′,2′,5′,6′,7′,7a′-hexahydrospiro[indoline-3,3′-pyrrolizin]-2-one]
IC50 [1, 6]: 26 ± 2 µM | IC50 [1, 7]: 12.4 µg/mL | SI (selectivity index) [1]: 1 | IC50 [2, 8]: 17.3 ± 3 µM | IC50 [2, 9]: 8.3 µg/mL | SI (selectivity index) [2]: 1.5 | IC50 ([3]; Chlorocebus sabaeus, Vero B): 26 µM | IC50 [4, 10]: 15.5 ± 2 µM | IC50 [4, 11]: 7.4 µg/mL | SI (selectivity index) [4]: 1.7 | melting point: 122 to 124 °C

O=C(c1c[nH]c2ccccc12)[C@@H]1C(c2ccc(Br)cc2)[C@@H]2CCCN2[C@@]12C(=O)Nc1ccccc12 (stereo partly drawn) [4f, (2′R,3S,7a′S)-1′-(4-Bromophenyl)-2′-(1H-indole-3-carbonyl)-1′,2′,5′,6′,7′,7a′-hexahydrospiro[indoline-3,3′-pyrrolizin]-2-one]
IC50 [1, 6]: 21 ± 1.3 µM | IC50 [1, 7]: 11 µg/mL | SI (selectivity index) [1]: 1.4 | IC50 [2, 8]: 12 ± 1.5 µM | IC50 [2, 9]: 6.3 µg/mL | SI (selectivity index) [2]: 2.5 | IC50 ([3]; Chlorocebus sabaeus, Vero B): 30 µM | IC50 [4, 10]: 16.3 ± 2.5 µM | IC50 [4, 11]: 8.6 µg/mL | SI (selectivity index) [4]: 1.8 | melting point: 101 to 102 °C

O=C(c1c[nH]c2ccccc12)[C@@H]1C(c2ccc(F)cc2)[C@@H]2CCCN2[C@@]12C(=O)Nc1ccccc12 (stereo partly drawn) [4g, (2′R,3S,7a′S)-1′-(4-Fluorophenyl)-2′-(1H-indole-3-carbonyl)-1′,2′,5′,6′,7′,7a′-hexahydrospiro[indoline-3,3′-pyrrolizin]-2-one]
IC50 [1, 6]: 16 ± 1 µM | IC50 [1, 7]: 7.4 µg/mL | SI (selectivity index) [1]: 2.5 | IC50 [2, 8]: 20 ± 2 µM | IC50 [2, 9]: 9.3 µg/mL | SI (selectivity index) [2]: 2 | IC50 ([3]; Chlorocebus sabaeus, Vero B): 40 µM | IC50 [4, 10]: 16.3 ± 30 µM | IC50 [4, 11]: 7.6 µg/mL | SI (selectivity index) [4]: 2.5 | melting point: 144 to 146 °C

O=C(c1c[nH]c2ccccc12)[C@@H]1C(c2cccc(F)c2)[C@@H]2CCCN2[C@@]12C(=O)Nc1ccccc12 (stereo partly drawn) [4h, (2′R,3S,7a′S)-1′-(3-Fluorophenyl)-2′-(1H-indole-3-carbonyl)-1′,2′,5′,6′,7′,7a′-hexahydrospiro[indoline-3,3′-pyrrolizin]-2-one]
IC50 [1, 6]: 15 ± 1.4 µM | IC50 [1, 7]: 7 µg/mL | SI (selectivity index) [1]: 1.2 | IC50 [2, 8]: 14 ± 0.22 µM | IC50 [2, 9]: 6.5 µg/mL | SI (selectivity index) [2]: 1.3 | IC50 ([3]; Chlorocebus sabaeus, Vero B): 18 µM | IC50 [4, 10]: 11.5 ± 11.5 µM | IC50 [4, 11]: 5.4 µg/mL | SI (selectivity index) [4]: 1.6 | melting point: 149 to 151 °C

Cc1cccc(C2[C@@H](C(=O)c3c[nH]c4ccccc34)[C@]3(C(=O)Nc4ccccc43)N3CCC[C@@H]23)c1 (stereo partly drawn) [4i, (2′R,3S,7a′S)-2′-(1H-Indole-3-carbonyl)-1′-(m-tolyl)-1′,2′,5′,6′,7′,7a′-hexahydrospiro[indoline-3,3′-pyrrolizin]-2-one]
IC50 [1, 6]: 7 ± 0.2 µM | IC50 [1, 7]: 3.2 µg/mL | SI (selectivity index) [1]: 2.1 | IC50 [2, 8]: 7 ± 0.4 µM | IC50 [2, 9]: 3.2 µg/mL | SI (selectivity index) [2]: 2.1 | IC50 ([3]; Chlorocebus sabaeus, Vero B): 15 µM | IC50 [4, 10]: 7 ± 0.6 µM | IC50 [4, 11]: 3.2 µg/mL | melting point: 141 to 143 °C

O=C(c1c[nH]c2ccccc12)[C@@H]1C(c2cccc(Br)c2)[C@@H]2CCCN2[C@@]12C(=O)Nc1ccccc12 (stereo partly drawn) [4j, (2′R,3S,7a′S)-1′-(3-Bromophenyl)-2′-(1H-indole-3-carbonyl)-1′,2′,5′,6′,7′,7a′-hexahydrospiro[indoline-3,3′-pyrrolizin]-2-one]
IC50 [1, 6]: 9 ± 0.5 µM | IC50 [1, 7]: 4.7 µg/mL | SI (selectivity index) [1]: 2.2 | IC50 [2, 8]: 8 ± 1 µM | IC50 [2, 9]: 4.2 µg/mL | SI (selectivity index) [2]: 2.5 | IC50 ([3]; Chlorocebus sabaeus, Vero B): 20 µM | IC50 [4, 10]: 7 ± 0.2 µM | IC50 [4, 11]: 3.7 µg/mL | melting point: 110 to 112 °C

O=C(c1c[nH]c2ccccc12)[C@@H]1[C@@H](c2ccc(C(F)(F)F)cc2)[C@@H]2CCCN2[C@]12C(=O)Nc1ccccc12 [4k]
IC50 [1, 6]: 9 ± 0.5 µM | IC50 [1, 7]: 4.6 µg/mL | SI (selectivity index) [1]: 2.4 | IC50 [2, 8]: 10 ± 1.25 µM | IC50 [2, 9]: 5.2 µg/mL | SI (selectivity index) [2]: 2.2 | IC50 ([3]; Chlorocebus sabaeus, Vero B): 22 µM | IC50 [4, 10]: 9 ± 0.2 µM | IC50 [4, 11]: 4.6 µg/mL | melting point: 153 to 155 °C

O=C(c1c[nH]c2ccccc12)[C@@H]1C(c2cccs2)[C@@H]2CCCN2[C@@]12C(=O)Nc1ccccc12 (stereo partly drawn) [4l, (2′R,3S,7a′S)-2′-(1H-Indole-3-carbonyl)-1′-(thiophen-2-yl)-1′,2′,5′,6′,7′,7a′-hexahydrospiro[indoline-3,3′-pyrrolizin]-2-one]
IC50 [1, 6]: 50 ± 3.5 µM | IC50 [1, 7]: 22.7 µg/mL | SI (selectivity index) [1]: 1.2 | IC50 [2, 8]: 50 ± 3 µM | IC50 [2, 9]: 22.7 µg/mL | SI (selectivity index) [2]: 1.2 | IC50 ([3]; Chlorocebus sabaeus, Vero B): 60 µM | IC50 [4, 10]: 29 ± 3 µM | IC50 [4, 11]: 13 µg/mL | SI (selectivity index) [4]: 2.1 | melting point: 157 to 159 °C

O=C(c1c[nH]c2ccccc12)[C@@H]1C(c2ccco2)[C@@H]2CCCN2[C@@]12C(=O)Nc1ccccc12 (stereo partly drawn) [4m, (2′R,3S,7a′S)-1′-(Furan-2-yl)-2′-(1H-indole-3-carbonyl)-1′,2′,5′,6′,7′,7a′-hexahydrospiro[indoline-3,3′-pyrrolizin]-2-one]
IC50 [1, 6]: 29 ± 2 µM | IC50 [1, 7]: 12.7 µg/mL | SI (selectivity index) [1]: 1.7 | IC50 [2, 8]: 40 ± 5 µM | IC50 [2, 9]: 17.5 µg/mL | SI (selectivity index) [2]: 1.3 | IC50 ([3]; Chlorocebus sabaeus, Vero B): 50 µM | IC50 [4, 10]: 26 ± 1.7 µM | IC50 [4, 11]: 11.3 µg/mL | SI (selectivity index) [4]: 1.9 | melting point: 172 to 174 °C

COc1cc(C2[C@@H](C(=O)c3c[nH]c4ccccc34)[C@]3(C(=O)Nc4ccccc43)N3CCC[C@@H]23)cc(OC)c1OC (stereo partly drawn) [4n, (2′R,3S,7a′S)-2′-(1H-Indole-3-carbonyl)-1′-(3,4,5-trimethoxyphenyl)-1′,2′,5′,6′,7′,7a′-hexahydrospiro[indoline-3,3′-pyrrolizin]-2-one]
IC50 [1, 6]: 20 ± 1.25 µM | IC50 [1, 7]: 11.1 µg/mL | SI (selectivity index) [1]: 2 | IC50 [2, 8]: 28 ± 2 µM | IC50 [2, 9]: 15.7 µg/mL | SI (selectivity index) [2]: 1.4 | IC50 ([3]; Chlorocebus sabaeus, Vero B): 40 µM | IC50 [4, 10]: 17 ± 2 µM | IC50 [4, 11]: 9.4 µg/mL | SI (selectivity index) [4]: 2.4 | melting point: 179 to 181 °C

N.N.[Cl][Pt][Cl] [Cisplatin, cis-diamineplatinum(II) dichloride, reference compound]
HCT-116 (IC50, μg ml^−1) ([1]; MTT, 48 h): 3.8 µg/mL | IC50 ([1]; MTT, 48 h, ± SD of 3 experiments, read-out: HCT-116 (IC50)): 12.6 ± 0.4 µM | HepG2 (IC50, μg ml^−1) ([2]; MTT, 48 h): 1.7 µg/mL | IC50 [3]: 5 µM | PC-3 (IC50, μg ml^−1) ([4]; MTT, 48 h): 1.5 µg/mL | IC50 ([4]; MTT, 48 h, ± SD of 3 experiments, read-out: PC-3 (IC50)): 5 ± 0.45 µM

O=C(O)CN(CCN(CC(=O)O)CC(=O)O)CC(=O)O [EDTA, reference compound]
IC50 [5]: 274 ± 0.007 µM
